# Measured values taken from PMC2922380, “Binding of Protein Kinase Inhibitors to Synapsin I Inferred from Pair-Wise Binding Site Similarity Measurements” (PLoS ONE, 2010).
# Like-named read-outs stand apart in the source and are kept apart here.
# Tests used:
# bovine synapsin I = bovine synapsin I (Bos taurus, UniProt P17599); assay: ATP-γ35S binding competition assay on purified synapsin I; details: for maximal inhibition of ATP-γ35S binding to synapsin I: from curve fitting (lower plateau); for binding to synapsin I (result in words): ATP-γ35S competition, inhibitor 0.1–30 µM
# Experimental: Synapsin I was purified from bovine brain [71] and stored in liquid nitrogen in 200 mM NaCl, 25 mM TrisCl, pH 7.4. […] ATP-γ^35S binding was quantified as previously described. Briefly, aliquots of the samples were spotted onto squares of phosphocellulose paper (Upstate/Millipore, Billerica, MA). The paper squares were extensively washed with deionized water for 30 min, air-dried and analyzed for radioactivity by using the Perkin Elmer Cyclone Plus Phosphor Imager. After subtraction of the background values (samples with no synapsin I), data from individual competition curves were fitted with a sigmoidal dose-response function (f = min +(max–min)/(1+10∧((logEC50-x)*Hillslope)) using the Sigmaplot 8.0 software (SPSS Inc., Chicago, IL) to yield IC50 and maximal inhibition values. Data in the plots are the means ± sem of at least 5 independent experiments.
# synapsin I / F-actin = assay: F-actin bundling activity of synapsin I, low speed sedimentation assay; assay type: biochemical, bovine; details: staurosporine 5 µM; synapsin I 0.5 µM, F-actin 5 µM; vs samples with F-actin and synapsin I only
# Experimental: Actin was purified from acetone powder of rabbit skeletal muscles, [96] and stored in liquid nitrogen in 2 mM Tris pH 8, 0.2 mM ATP, 0,2 mM CaCl2, 0.125 mM β-mercaptoethanol and 0.005% NaN3 (G-buffer). Before the experiments, both G-actin and synapsin I were prespun for 1 h at 4°C at 300,000× g to remove large aggregates. G-actin was polymerized at room temperature for 1 h in the presence of 100 mM KCl, 1.2 mM MgCl2. […] Pellets were solubilized in sample buffer and analyzed by sodium dodecylsulfate polyacrylamide gel electrophoresis (SDS-PAGE) using 10% acrylamide in the resolving gel. Gels were fixed, stained with Coomassie Blue and destained. Densitometric analysis of the actin bands was carried out by using the ImageQuant system (GE Healthcare) followed by densitometric analysis of the fluorograms and by data interpolation into a standard curve of purified G-actin run in parallel with the unknown samples.
# [1] = ATP-γ35S 0.2 µM, purified bovine synapsin I 0.5 µM
# [2] = ATP-γ35S 0.2 µM, purified bovine synapsin I 0.5 µM, means ± sem from 5 independent experiments, read-out: IC50, inhibition of ATP-γ35S binding to synapsin I
IC50 (bovine synapsin I; [2]) [nM],binding to synapsin I (result in words) (bovine synapsin I),Compound,maximal inhibition of ATP-γ35S binding to synapsin I (bovine synapsin I; [1]),further results
70 ± 10,–,Nc1ncnc2c1ncn2[C@@H]1O[C@H](COP(=O)(O)OP(=O)(O)OP(=O)(O)O)[C@@H](O)[C@H]1O [ATP],95.8±2.2%,–
–,inactive,CCc1cc(-c2n[nH]c(C)c2-c2ccc3c(c2)OCCO3)c(O)cc1O [CCT018159],–,–
> 30000,–,O=S(=O)(NCCNC/C=C/c1ccc(Br)cc1)c1cccc2cnccc12 [H-89],–,–
–,inactive,Cc1nc2sccn2c(=O)c1CCN1CCC(=C(c2ccccc2)c2ccc(F)cc2)CC1 [R59022],–,–
500,–,O=C(O)CN1C(=O)c2c(I)c(I)c(I)c(I)c2C1=O [compound 70159800251],ca. 70%,–
–,–,O=c1c(O)c(-c2ccc(O)c(O)c2)oc2cc(O)c(O)c(O)c12 [quercetagetin],88.3±4.9%,IC50 (bovine synapsin I): 150 nM
–,–,CN[C@@H]1C[C@H]2O[C@@](C)([C@@H]1OC)n1c3ccccc3c3c4c(c5c6ccccc6n2c5c31)C(=O)NC4 [staurosporine],84.3±1.2%,"increase in F-actin/synapsin I bundles recovered by low speed sedimentation (synapsin I / F-actin): approximately 30%; affinity to bovine synapsin I (bovine synapsin I; in vitro competition assay, as restated in Discussion): about 0.3 µM"

Compound,IC50 (bovine synapsin I; [2]) [nM],binding to synapsin I (result in words) (bovine synapsin I),maximal inhibition of ATP-γ35S binding to synapsin I (bovine synapsin I; [1]),further results
novobiocin,–,inactive,–,–
